What was measured:
CDK2/Cyclin E1 complex = CDK2/Cyclin E1 complex (Homo sapiens, UniProt P24941); assay: CDK2 kinase inhibition assay (Caliper/LabChip EZ Reader); type: biochemical; conditions: CDK2/Cyclin E1 0.5 nM, ATP 2 mM, 35 min at 27° C.
Outline: (§1)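 Caliper/LabChip mobility-shift kinase assays at 27° C. CDK9/Cyclin T1 8 nM with 2 μM 5-FAM-CDK9tide, 10 mM MgCl2, 15 min; CDK12/Cyclin K 50 nM with 5-FAM-CDK9tide 2 μM, 2 mM MgCl2, 3 hr; CDK2/Cyclin E1 0.5 nM with 5-FAM-CDK7tide 2 μM, 2 mM MgCl2, 35 min; CDK7 35 min.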

[1] = molecular target: CDK7/Cyclin H/MAT1 complex (Homo sapiens, UniProt P50613); assay: CDK7 kinase inhibition assay (Caliper/LabChip EZ Reader); type: biochemical; conditions: CDK7/Cyclin H/MAT1 6 nM, ATP 2 mM, 35 min at 27° C.
CDK7/Cyclin H/MAT1 complex, sequence (P50613 whole entry): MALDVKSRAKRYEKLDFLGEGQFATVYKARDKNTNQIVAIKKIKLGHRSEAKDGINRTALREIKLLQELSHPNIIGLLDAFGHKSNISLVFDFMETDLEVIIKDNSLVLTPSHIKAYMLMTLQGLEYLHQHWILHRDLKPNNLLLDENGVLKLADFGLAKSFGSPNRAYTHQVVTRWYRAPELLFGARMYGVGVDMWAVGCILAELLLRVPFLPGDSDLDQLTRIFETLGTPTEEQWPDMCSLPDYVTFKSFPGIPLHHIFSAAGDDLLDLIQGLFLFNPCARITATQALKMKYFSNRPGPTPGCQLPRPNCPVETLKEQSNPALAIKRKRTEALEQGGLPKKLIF
CDK7/Cyclin H/MAT1 complex, sequence (P51946 whole entry partner): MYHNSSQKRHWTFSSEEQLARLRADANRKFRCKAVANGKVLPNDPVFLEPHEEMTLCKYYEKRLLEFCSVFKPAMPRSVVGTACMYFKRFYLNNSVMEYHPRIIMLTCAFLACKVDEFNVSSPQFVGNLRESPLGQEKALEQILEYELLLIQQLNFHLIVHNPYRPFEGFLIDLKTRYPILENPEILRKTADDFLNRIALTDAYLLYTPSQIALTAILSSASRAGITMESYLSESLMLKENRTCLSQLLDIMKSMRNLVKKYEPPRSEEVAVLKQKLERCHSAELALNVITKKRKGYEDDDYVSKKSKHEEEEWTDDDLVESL
CDK7/Cyclin H/MAT1 complex, sequence (P51948 whole entry partner): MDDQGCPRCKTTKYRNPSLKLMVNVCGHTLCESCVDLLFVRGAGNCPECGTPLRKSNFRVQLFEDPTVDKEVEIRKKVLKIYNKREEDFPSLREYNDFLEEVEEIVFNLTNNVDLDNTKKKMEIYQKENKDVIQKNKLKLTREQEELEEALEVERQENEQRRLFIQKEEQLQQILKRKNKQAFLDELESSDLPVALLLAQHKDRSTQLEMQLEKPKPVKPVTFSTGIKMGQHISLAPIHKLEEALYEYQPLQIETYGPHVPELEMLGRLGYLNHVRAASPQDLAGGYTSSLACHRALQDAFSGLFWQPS
Outline: as §1

HCC70 cells = assay: Inhibition of proliferation of HCC70 cells (CyQUANT Direct, 72 hour); type: cell-based, human; conditions: read-out: Inhibition of Proliferation of HCC70 Cells (calculated IC50)
Experimental: HCC70 cells: HCC70 cells are a cell line derived from human triple negative breast cancer. Representative compounds of the invention were tested at different concentrations (from 4 μM to […]; 0.5 log serial dilutions) for their ability to inhibit the proliferation of HCC70 cells. Known CDK inhibitors dinaciclib or N-((1S,3R)-3-((5-chloro-4-(1H-indol-3-yl) pyrimidin-2-yl)amino)cyclohexyl)-5-((E)-4-(dimethylamino)but-2-enamido)picolinamide and triptolide were used as positive controls. Cells were grown in ATCC-formulated RPMI-1640 Medium (ATCC 30-2001)+10% FBS. The cells were cultured at 37° C. in a humidified chamber in the presence of 5% CO2. Proliferation assays were conducted over a 72 hour time period. CyQUANT® Direct Cell Proliferation Assay (Life Technologies, Chicago, Ill. USA) was used to assess the anti-proliferative effects of the compounds following manufacturer's directions and utilizing the reagents supplied with the CyQUANT® Direct Cell kit.

[2] = molecular target: T1, CDK12 (aa686-1082)/Cyclin K complex (Homo sapiens, UniProt Q9NYV4); assay: CDK12 kinase inhibition assay (Caliper/LabChip EZ Reader); type: biochemical; conditions: CDK12 (aa686-1082)/Cyclin K 50 nM, ATP 2 mM, 3 hr at 27° C.
T1 construct: CDK12 (aa686-1082)/Cyclin K complex
T1 sequence (Q9NYV4 686-1082): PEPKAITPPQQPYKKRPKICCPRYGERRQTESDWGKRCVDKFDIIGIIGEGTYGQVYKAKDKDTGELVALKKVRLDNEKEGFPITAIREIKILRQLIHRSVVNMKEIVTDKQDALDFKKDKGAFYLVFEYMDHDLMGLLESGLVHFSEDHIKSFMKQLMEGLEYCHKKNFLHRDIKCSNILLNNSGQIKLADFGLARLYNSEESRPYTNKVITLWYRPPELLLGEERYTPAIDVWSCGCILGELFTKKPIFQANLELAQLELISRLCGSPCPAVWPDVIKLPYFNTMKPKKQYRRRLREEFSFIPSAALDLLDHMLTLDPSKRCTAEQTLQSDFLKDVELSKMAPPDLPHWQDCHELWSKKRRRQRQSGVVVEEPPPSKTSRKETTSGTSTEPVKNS
T1 sequence (O75909 whole entry partner, the tested form may be a part): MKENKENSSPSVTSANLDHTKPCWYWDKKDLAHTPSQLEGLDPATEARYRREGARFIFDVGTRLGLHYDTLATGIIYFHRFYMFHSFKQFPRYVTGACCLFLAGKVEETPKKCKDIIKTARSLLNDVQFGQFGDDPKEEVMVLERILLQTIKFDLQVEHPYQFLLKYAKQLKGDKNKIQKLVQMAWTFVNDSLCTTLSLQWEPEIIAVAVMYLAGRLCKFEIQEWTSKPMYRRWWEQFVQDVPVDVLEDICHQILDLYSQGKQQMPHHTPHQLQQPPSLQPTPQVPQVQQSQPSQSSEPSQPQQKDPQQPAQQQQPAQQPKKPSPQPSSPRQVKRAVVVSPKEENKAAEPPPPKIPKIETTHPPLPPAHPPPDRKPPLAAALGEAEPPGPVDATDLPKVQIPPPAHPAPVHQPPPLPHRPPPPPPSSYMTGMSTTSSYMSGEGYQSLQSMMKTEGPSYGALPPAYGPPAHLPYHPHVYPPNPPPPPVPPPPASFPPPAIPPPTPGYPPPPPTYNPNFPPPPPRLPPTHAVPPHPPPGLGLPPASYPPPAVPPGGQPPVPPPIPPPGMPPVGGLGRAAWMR
Outline: as §1

CDK9/Cyclin T1 complex = CDK9/Cyclin T1 complex (Homo sapiens, UniProt P50750); assay: CDK9 kinase inhibition assay (Caliper/LabChip EZ Reader); type: biochemical; conditions: CDK9/Cyclin T1 8 nM, ATP 2 mM, 15 min at 27° C.
CDK9/Cyclin T1 complex, sequence (P50750 whole entry): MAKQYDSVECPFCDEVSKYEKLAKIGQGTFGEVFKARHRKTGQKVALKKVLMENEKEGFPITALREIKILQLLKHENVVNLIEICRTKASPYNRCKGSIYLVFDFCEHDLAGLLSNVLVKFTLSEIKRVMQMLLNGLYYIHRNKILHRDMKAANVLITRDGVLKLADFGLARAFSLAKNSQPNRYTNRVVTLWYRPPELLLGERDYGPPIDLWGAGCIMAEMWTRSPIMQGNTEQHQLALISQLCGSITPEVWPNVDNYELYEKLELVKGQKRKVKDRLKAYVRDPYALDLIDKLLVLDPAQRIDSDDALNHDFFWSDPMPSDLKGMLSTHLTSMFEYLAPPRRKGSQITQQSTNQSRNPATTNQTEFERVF
CDK9/Cyclin T1 complex, sequence (O60563 whole entry partner): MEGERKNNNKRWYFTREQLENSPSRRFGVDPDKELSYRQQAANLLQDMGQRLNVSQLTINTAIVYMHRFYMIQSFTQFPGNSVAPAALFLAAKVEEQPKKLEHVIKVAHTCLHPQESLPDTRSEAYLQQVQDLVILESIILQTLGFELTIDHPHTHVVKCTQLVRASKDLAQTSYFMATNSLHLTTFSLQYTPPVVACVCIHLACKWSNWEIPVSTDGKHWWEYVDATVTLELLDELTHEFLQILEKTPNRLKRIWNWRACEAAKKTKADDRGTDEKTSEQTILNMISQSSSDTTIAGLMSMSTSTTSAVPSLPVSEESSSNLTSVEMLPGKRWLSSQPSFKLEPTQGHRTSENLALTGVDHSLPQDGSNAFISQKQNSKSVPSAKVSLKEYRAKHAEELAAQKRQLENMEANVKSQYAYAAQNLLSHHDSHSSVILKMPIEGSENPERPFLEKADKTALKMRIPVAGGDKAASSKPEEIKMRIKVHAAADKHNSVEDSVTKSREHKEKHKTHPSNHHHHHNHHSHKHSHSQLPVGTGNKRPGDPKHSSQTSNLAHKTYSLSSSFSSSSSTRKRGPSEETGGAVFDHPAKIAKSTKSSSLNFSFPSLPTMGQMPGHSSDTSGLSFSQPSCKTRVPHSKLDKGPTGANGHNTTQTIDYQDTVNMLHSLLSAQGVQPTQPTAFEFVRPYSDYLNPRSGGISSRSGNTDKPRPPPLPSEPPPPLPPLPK
Outline: as §1

COC1CCN(C(=O)c2ccc3c(-c4nc(NC5CCCNC5)ncc4C(F)(F)F)c[nH]c3c2)C1 (stereo not drawn) [Compound 280]
IC50 (CDK2/Cyclin E1 complex): ≥ 5000 nM | IC50 [1]: 20 to 200 nM | IC50 (HCC70 cells): 100 to 1000 nM | IC50 [2]: 200 to 5000 nM | IC50 (CDK9/Cyclin T1 complex): ≥ 5000 nM

COC1CCN(C(=O)c2ccc3c(-c4nc(NC5CCCNC5)ncc4C(F)(F)F)c[nH]c3c2)C1 (stereo not drawn) [Compound 281]
IC50 (CDK2/Cyclin E1 complex): 200 to 5000 nM | IC50 [1]: < 20 nM | IC50 (HCC70 cells): 100 to 1000 nM | IC50 [2]: 200 to 5000 nM | IC50 (CDK9/Cyclin T1 complex): 200 to 5000 nM

CC1(O)CCN(C(=O)c2ccc3c(-c4nc(N[C@H]5CCCNC5)ncc4C(F)(F)F)c[nH]c3c2)CC1 [Compound 282]
IC50 (CDK2/Cyclin E1 complex): 200 to 5000 nM | IC50 [1]: < 20 nM | IC50 (HCC70 cells): 100 to 1000 nM | IC50 [2]: 200 to 5000 nM | IC50 (CDK9/Cyclin T1 complex): ≥ 5000 nM

N#CC1CCN(C(=O)c2ccc3c(-c4nc(NC5CCCNC5)ncc4C(F)(F)F)c[nH]c3c2)C1 (stereo not drawn) [Compound 293]
IC50 (CDK2/Cyclin E1 complex): 200 to 5000 nM | IC50 [1]: < 20 nM | IC50 (HCC70 cells): 100 to 1000 nM | IC50 [2]: 200 to 5000 nM | IC50 (CDK9/Cyclin T1 complex): 200 to 5000 nM

CS(=O)(=O)c1c(C#N)ccc2c(-c3nc(NC4CCCNC4)ncc3Cl)c[nH]c12 (stereo not drawn) [Compound 294]
IC50 (CDK2/Cyclin E1 complex): 200 to 5000 nM | IC50 [1]: < 20 nM | IC50 (HCC70 cells): < 100 nM | IC50 [2]: 200 to 5000 nM | IC50 (CDK9/Cyclin T1 complex): 200 to 5000 nM

COCn1cc(-c2nc(NC3CCCNC3)ncc2C(F)(F)F)c2cccc(C#N)c21 (stereo not drawn) [Compound 295]
IC50 (CDK2/Cyclin E1 complex): ≥ 5000 nM | IC50 [1]: 20 to 200 nM | IC50 (HCC70 cells): 1000 to 5000 nM | IC50 [2]: ≥ 5000 nM | IC50 (CDK9/Cyclin T1 complex): ≥ 5000 nM

Cn1cc(-c2nc(NC3CCCNC3)ncc2C(F)(F)F)c2cccc(S(C)(=O)=O)c21 (stereo not drawn) [Compound 296]
IC50 (CDK2/Cyclin E1 complex): ≥ 5000 nM | IC50 [1]: 20 to 200 nM | IC50 (HCC70 cells): 1000 to 5000 nM | IC50 [2]: ≥ 5000 nM | IC50 (CDK9/Cyclin T1 complex): ≥ 5000 nM

CNC(=O)c1ccc2c(-c3nc(NC4CCCNC4)ncc3C(F)(F)F)c[nH]c2n1 (stereo not drawn) [Compound 297]
IC50 (CDK2/Cyclin E1 complex): 200 to 5000 nM | IC50 [1]: < 20 nM | IC50 (HCC70 cells): < 100 nM | IC50 [2]: 200 to 5000 nM | IC50 (CDK9/Cyclin T1 complex): 200 to 5000 nM

CCN1CCCC(Nc2ncc(C(F)(F)F)c(-c3c[nH]c4cc(S(C)(=O)=O)ccc34)n2)C1 (stereo not drawn) [Compound 298]
IC50 (CDK2/Cyclin E1 complex): 200 to 5000 nM | IC50 [1]: < 20 nM | IC50 (HCC70 cells): 100 to 1000 nM | IC50 [2]: 200 to 5000 nM | IC50 (CDK9/Cyclin T1 complex): ≥ 5000 nM

O=C(c1ccc2c(-c3nc(NC4CCCNC4)ncc3C(F)(F)F)c[nH]c2c1)N1CCC(O)(C(F)(F)F)C1 (stereo not drawn) [Compound 299]
IC50 (CDK2/Cyclin E1 complex): 200 to 5000 nM | IC50 [1]: < 20 nM | IC50 (HCC70 cells): 1000 to 5000 nM | IC50 [2]: 200 to 5000 nM | IC50 (CDK9/Cyclin T1 complex): 200 to 5000 nM

O=C(c1ccc2c(-c3nc(NC4CCCNC4)ncc3C(F)(F)F)c[nH]c2c1)N1CCC(O)(C(F)(F)F)C1 (stereo not drawn) [Compound 300]
IC50 (CDK2/Cyclin E1 complex): 200 to 5000 nM | IC50 [1]: < 20 nM | IC50 (HCC70 cells): 100 to 1000 nM | IC50 [2]: 200 to 5000 nM | IC50 (CDK9/Cyclin T1 complex): 200 to 5000 nM

N#Cc1ccc2c(-c3nc(NC4CCCNC4)ncc3OC(F)F)c[nH]c2c1 (stereo not drawn) [Compound 301]
IC50 (CDK2/Cyclin E1 complex): ≥ 5000 nM | IC50 [1]: 20 to 200 nM | IC50 (HCC70 cells): 1000 to 5000 nM | IC50 [2]: ≥ 5000 nM | IC50 (CDK9/Cyclin T1 complex): ≥ 5000 nM

O=C1CCN(C(=O)c2ccc3c(-c4nc(NC5CCCNC5)ncc4C(F)(F)F)c[nH]c3c2)C1 (stereo not drawn) [Compound 302]
IC50 (CDK2/Cyclin E1 complex): 200 to 5000 nM | IC50 [1]: 20 to 200 nM | IC50 (HCC70 cells): 100 to 1000 nM | IC50 [2]: 200 to 5000 nM | IC50 (CDK9/Cyclin T1 complex): 200 to 5000 nM

Cn1ccc(-c2ccc3c(-c4nc(NC5CCCNC5)ncc4C(F)(F)F)c[nH]c3c2)n1 (stereo not drawn) [Compound 303]
IC50 (CDK2/Cyclin E1 complex): 200 to 5000 nM | IC50 [1]: < 20 nM | IC50 (HCC70 cells): 100 to 1000 nM | IC50 [2]: 200 to 5000 nM | IC50 (CDK9/Cyclin T1 complex): 200 to 5000 nM

CNC(=O)c1cccc2c(-c3nc(NC4CCCNC4)ncc3C(F)(F)F)cn(COC)c12 (stereo not drawn) [Compound 304]
IC50 (CDK2/Cyclin E1 complex): ≥ 5000 nM | IC50 [1]: ≥ 5000 nM | IC50 (HCC70 cells): 1000 to 5000 nM | IC50 [2]: ≥ 5000 nM | IC50 (CDK9/Cyclin T1 complex): ≥ 5000 nM

FC(F)(F)Sc1cnc(NC2CCCNC2)nc1-c1c[nH]c2ccccc12 (stereo not drawn) [Compound 305]
IC50 (CDK2/Cyclin E1 complex): 200 to 5000 nM | IC50 [1]: < 20 nM | IC50 (HCC70 cells): 1000 to 5000 nM | IC50 [2]: 200 to 5000 nM | IC50 (CDK9/Cyclin T1 complex): 200 to 5000 nM

O=C(O)c1ccc2c(-c3nc(NC4CCCNC4)ncc3C(F)(F)F)c[nH]c2c1 (stereo not drawn) [Compound 306]
IC50 (CDK2/Cyclin E1 complex): 200 to 5000 nM | IC50 [1]: 20 to 200 nM | IC50 (HCC70 cells): 100 to 1000 nM | IC50 [2]: 200 to 5000 nM | IC50 (CDK9/Cyclin T1 complex): ≥ 5000 nM

CNC(=O)c1cccc2c(-c3nc(NC4CCCNC4)ncc3C(F)(F)F)cn(C)c12 (stereo not drawn) [Compound 307]
IC50 (CDK2/Cyclin E1 complex): ≥ 5000 nM | IC50 [1]: ≥ 5000 nM | IC50 (HCC70 cells): 1000 to 5000 nM | IC50 [2]: ≥ 5000 nM | IC50 (CDK9/Cyclin T1 complex): ≥ 5000 nM

— patent publication US20230000870A1, “METHODS OF TREATING CANCER IN BIOMARKER-IDENTIFIED PATIENTS WITH INHIBITORS OF CYCLIN-DEPENDENT KINASE 7 (CDK7)” (Syros Pharmaceuticals, Inc., priority 2019, published 2023)
